Source: patent publication US6652890B2, “Tea catechins as cancer specific proliferation inhibitors” (Purdue Research Foundation, priority 1999, dated 2003)
“Also recorded” adds a separate entry of the source. Where two headings read alike, the source gives them in different places. One block for each compound: values may come before it.

What was measured:
[1] = target: T1, tNOX activity of intact 4T1 mouse mammary cells (Mus musculus, UniProt Q8R0Z2); assay: Inhibition of tNOX (NADH oxidase) activity of intact 4T1 cells; assay type: cell-based; conditions: for Inhibition of residual tNOX remaining in the presence of EGCg, EC>90: estimated
T1 construct: endogenous in cells; host or cells: 4T1 mouse mammary carcinoma cells (intact)
T1 sequence (Q8R0Z2 1-598): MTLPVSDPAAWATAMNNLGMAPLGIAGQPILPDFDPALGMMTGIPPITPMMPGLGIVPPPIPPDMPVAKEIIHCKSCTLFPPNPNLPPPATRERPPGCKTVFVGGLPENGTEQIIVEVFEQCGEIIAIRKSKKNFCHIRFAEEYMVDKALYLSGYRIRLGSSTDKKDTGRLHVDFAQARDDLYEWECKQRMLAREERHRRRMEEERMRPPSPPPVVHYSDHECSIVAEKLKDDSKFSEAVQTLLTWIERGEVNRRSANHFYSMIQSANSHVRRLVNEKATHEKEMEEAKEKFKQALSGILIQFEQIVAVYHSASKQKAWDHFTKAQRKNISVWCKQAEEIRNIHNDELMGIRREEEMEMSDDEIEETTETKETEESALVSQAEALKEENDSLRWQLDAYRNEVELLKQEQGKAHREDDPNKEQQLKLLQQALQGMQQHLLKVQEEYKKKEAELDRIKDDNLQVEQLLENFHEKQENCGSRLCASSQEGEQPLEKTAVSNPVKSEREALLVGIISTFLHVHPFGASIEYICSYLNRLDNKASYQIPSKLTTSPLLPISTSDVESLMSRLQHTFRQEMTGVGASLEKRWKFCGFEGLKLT
Description: A mouse mammary tumor subpopulation line 4T1 arising from a BALB/cf C3H mouse was grown in DME-10, Dulbecco's modified Eagle's medium supplemented with 5% fetal calf serum, 5% newborn calf serum, 1 mM mixed non-essential amino acids, 2 mM L-glutamine, penicillin (100 units/ml), and streptomycin (100 μg/ml) (Miller et al., 1987, Brit. J. Can. 56:561-569 and Miller et al., 1990, Invasion Metastasis 10:101-112).
NADH oxidase activity was determined as the disappearance of NADH measured at 340 nm in a reaction mixture containing 25 mM Tris-Mes buffer (pH 7.2), 1 mM KCN, and 150 μM NADH at 37° C. Activity was measured using a Hitachi U3210 spectrophotometer with stirring and continuous recording over two intervals of 5 min each. A millimolar extinction coefficient of 6.22 was used to determine specific activity.
NADH oxidase activity was determined as the disappearance of NADH measured at 340 nm in a reaction mixture containing 25 mM Tris-Mes buffer (pH 7.2), 1 mM KCN, and 150 μM NADH at 37° C. Activity was measured at 340 nm with reference at 430 nm using an SLM Aminco DW-2000 spectrophotometer (Milton Roy, Rochester, N.Y.) in the dual beam mode of operation with stirring and continuous recording over two intervals of 5 min each. A millimolar extinction coefficient of 6.22 was used to determine specific activity.

[2] = test system: 4T1 metastatic mouse mammary cancer cells; assay: Killing of 4T1 metastatic mouse mammary cancer cells in culture; assay type: cell-based; conditions: EGCg 10^−7 M, EC 10^−4 M, alone or combined
4T1 mouse mammary cancer = assay: Preliminary animal study, Balb/c mice with 4T1 mouse mammary cancer; assay type: in vivo; conditions: treated for 5 days, 100 μl/day; glaucarubolone 1 mg, EGCg + EC 0.2 + 1.2 mg per animal
[3] = Inhibition of residual tNOX remaining in the presence of EGCg, EC50, estimated, EGCg given as 0.1 mM (title), 10^−6 M (head), 10^−7 M
[4] = EGCg given as 0.1 mM (title), 10^−6 M (head), 10^−7 M

Effect on NOX activity ([1]; in the presence of 10^−7 M EGCg, listed as Catechin): largely without effect
Effect on NOX activity ([1]; in the presence of 10^−7 M EGCg, listed as ±catechin): little affected
Compound: Oc1cc(O)c2c(c1)OC(c1ccc(O)c(O)c1)C(O)C2 (racemic) [C, (±) - catechin]

EC50 for tNOX inhibition by (−)-epicatechin ([1]; EGCg concentration 0 M, EGCg alone): No effect
EC50 for tNOX inhibition by (−)-epicatechin ([1]; EGCg concentration 0 M, supplied as Tegreen™): No effect
EC50 ([1]; EGCg concentration 10^−4 M, EGCg alone, read-out: EC50 for tNOX inhibition by (−)-epicatechin): 500 ± 400 nM
EC50 ([1]; EGCg concentration 10^−4 M, supplied as Tegreen™, read-out: EC50 for tNOX inhibition by (−)-epicatechin): 300 ± 200 nM
EC50 ([1]; EGCg concentration 10^−5 M, EGCg alone, read-out: EC50 for tNOX inhibition by (−)-epicatechin): 700 ± 300 nM
EC50 ([1]; EGCg concentration 10^−6 M, EGCg alone, read-out: EC50 for tNOX inhibition by (−)-epicatechin): 150 ± 50 nM
EC50 ([1]; EGCg concentration 10^−6 M, supplied as Tegreen™, read-out: EC50 for tNOX inhibition by (−)-epicatechin): 500 ± 400 nM
EC50 ([1]; EGCg concentration 10^−7 M, EGCg alone, read-out: EC50 for tNOX inhibition by (−)-epicatechin): 200 ± 100 nM
EC50 for tNOX inhibition by (−)-epicatechin ([1]; EGCg concentration 10^−7 M, supplied as Tegreen™): No effect
EC50 for tNOX inhibition by (−)-epicatechin ([1]; EGCg concentration 10^−8 M, EGCg alone): No effect
EC50 for tNOX inhibition by (−)-epicatechin ([1]; EGCg concentration 10^−8 M, supplied as Tegreen™): No effect
EC50 ([1]; in the presence of 10^−7 M EGCg, read-out: EC50 of EC): ~200 nM
Compound: Oc1cc(O)c2c(c1)O[C@H](c1ccc(O)c(O)c1)[C@H](O)C2 [EC, (−) - epicatechin]
Increase in cell number cm^−2 over 72 h · 10^2 [2]: 560 cm^−2 · 10^2

EC50 [1, 3]: 500 nM
Inhibition of residual tNOX remaining in the presence of EGCg, EC>90 [1, 4]: 10^−6 M
Compound: O=C(O[C@@H]1Cc2c(O)cc(O)cc2O[C@@H]1c1ccc(O)c(O)c1)c1cc(O)c(O)c(O)c1 [ECG, (−) - epicatechin gallate]

Compound: Oc1cc(O)c2c(c1)O[C@H](c1cc(O)c(O)c(O)c1)[C@H](O)C2 [EGC, (−) - epigallocatechin]
EC50 [1, 3]: 1000 nM
Inhibition of residual tNOX remaining in the presence of EGCg, EC>90 [1, 4]: 10^−5 M

Inhibition of residual tNOX remaining in the presence of EGCg, EC>90 [1, 4]: Not reached due
Compound: O=C(O[C@@H]1Cc2c(O)cc(O)cc2O[C@H]1c1cc(O)c(O)c(O)c1)c1cc(O)c(O)c(O)c1 [GCG, gallocatechin gallate]
Effect on NOX activity ([1]; in the presence of 10^−7 M EGCg): less effective; also recorded: less affected

Compound: CC1=CC(=O)[C@@H](O)[C@]2(C)[C@H]3[C@@]4(O)OC[C@]35[C@H]([C@@H](C)[C@H]4O)[C@@H](O)C(=O)O[C@@H]5C[C@@H]12 [Glaucarubolone, glaucarubolone]
Tumor wt (4T1 mouse mammary cancer): 1.5 ± 0.1 g
